In ChEMBL document CHEMBL3045570, “Rational herbicide design by inhibition of tryptophan biosynthesis” (Bioorg Med Chem Lett, 1999) one finds Activity, IC50 and Ki data, which are given here for eight compounds.

In assay [1] the test system is Arabidopsis thaliana. The experiment in a line: Herbicidal activity against Arabidopsis thaliana seedlings assessed as chlorosis at 8 to 1000 uM. Type of assay: functional, organism-based.
Assay [2] deals with Arabidopsis thaliana. Kind of assay: Herbicidal activity against Arabidopsis thaliana seedlings assessed as injury at 8 to 1000 uM. It counts as functional, organism-based.
Assay [3] has as its system Arabidopsis thaliana. Kind of assay: Herbicidal activity against Arabidopsis thaliana seedlings assessed as injury at 8 to 1000 uM in presence of tryptophan. It counts as functional, organism-based.
The test system of a further assay is Amaranthus viridis. The experiment in a line: Herbicidal activity against Amaranthus viridis assessed as injury at 4 kg/ha applied as spray during postemergence measured after 2 weeks. Type of assay: functional.
Another assay deals with Chenopodium album. The experiment in a line: Herbicidal activity against Chenopodium album assessed as injury at 4 kg/ha applied as spray during postemergence measured after 2 weeks. It counts as functional.
Assay [4] is described as follows: Inhibition of Salmonella enterica subsp. enterica serovar Typhimurium tryptophan synthase alpha subunit. Particulars: read-out: I50.
Assay [5] has as its system Arabidopsis thaliana. Kind of assay: Herbicidal activity against Arabidopsis thaliana seedlings assessed as injury at 8 to 16 uM. It counts as functional, organism-based.
In assay [6] the test system is Arabidopsis thaliana. Kind of assay: Herbicidal activity against Arabidopsis thaliana seedlings assessed as chlorosis at 125 to 1000 uM. Type of assay: functional, organism-based.
Assay [7] relates to Arabidopsis thaliana. Kind of assay: Herbicidal activity against Arabidopsis thaliana seedlings assessed as injury at 31 to 1000 uM. Type of assay: functional, organism-based.
Assay [8] has as its target T1, Tryptophan synthase alpha /beta chains (Escherichia coli K-12, UniProt P0A877+P0A879).
T1 sequence (P0A879 whole entry): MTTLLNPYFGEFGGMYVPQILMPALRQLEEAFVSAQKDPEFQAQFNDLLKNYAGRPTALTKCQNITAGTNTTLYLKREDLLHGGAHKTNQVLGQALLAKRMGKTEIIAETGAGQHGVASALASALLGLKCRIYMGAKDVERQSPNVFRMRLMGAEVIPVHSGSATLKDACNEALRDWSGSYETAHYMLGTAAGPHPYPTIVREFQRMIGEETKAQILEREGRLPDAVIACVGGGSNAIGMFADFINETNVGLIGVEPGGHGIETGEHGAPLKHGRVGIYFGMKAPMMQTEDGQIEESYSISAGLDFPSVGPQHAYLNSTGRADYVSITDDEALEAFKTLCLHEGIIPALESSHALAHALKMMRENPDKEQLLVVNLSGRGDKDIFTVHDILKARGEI
T1 sequence (P0A877 whole entry): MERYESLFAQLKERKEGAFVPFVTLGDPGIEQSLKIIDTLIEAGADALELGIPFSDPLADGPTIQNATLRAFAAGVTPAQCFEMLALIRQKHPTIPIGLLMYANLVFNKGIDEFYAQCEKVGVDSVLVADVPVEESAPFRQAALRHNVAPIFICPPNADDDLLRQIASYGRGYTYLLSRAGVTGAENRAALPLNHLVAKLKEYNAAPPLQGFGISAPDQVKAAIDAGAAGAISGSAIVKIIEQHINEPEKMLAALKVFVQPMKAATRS
Kind of assay: Binding affinity to tryptophan synthase alpha2/beta2 complex in Escherichia coli K-12 by equlibrium dialysis method. It counts as protein-complex assay.

Structures are written as SMILES. Activity calls are given as the source filed them. No cut-off for these calls is given here. A value given as a limit tells only on which side of the number the result lay.

Consider `O=P(O)(O)/C=C/CCSc1ccccc1O`, for which the result with Arabidopsis thaliana [1] and with Arabidopsis thaliana [2] was Active. The outcome in the assay with Arabidopsis thaliana [3] was inactive. The Activity entry in the assay with Amaranthus viridis and in the assay on Chenopodium album was “<=80%” each time. The IC50 in assay [4] was found to be 570 nM.

In the case of `O=P(O)(O)CCCc1c[nH]c2ccccc12`, the IC50 in assay [4] amounted to 12500 nM.

For `O=P(O)(O)CCCCSc1ccccc1O`, the result in the assay with Arabidopsis thaliana [3] and in the assay with Arabidopsis thaliana [5] was inactive. The outcome in the assay on Arabidopsis thaliana [6] and in the assay on Arabidopsis thaliana [7] was Active. Also, the Activity entry with Amaranthus viridis and with Chenopodium album was “<=80%” each time. Also, in [4], the IC50 was determined as 130 nM.

`Nc1ccccc1SCCCCP(=O)(O)O`: the Activity result with Amaranthus viridis and in the assay on Chenopodium album was “<=65%” each time. Moreover, the IC50 in [4] was determined as 400 nM.

Compound `O=P(O)(O)OCCCc1c[nH]c2ccccc12` came in with a Ki in assay [8] of 15000 nM. In [4], the IC50 was 5000 nM.

Consider `O=P(O)(O)/C=C/CCS(=O)(=O)c1ccccc1O`, for which the outcome with Amaranthus viridis and with Chenopodium album was inactive. Further, the IC50 in assay [4] worked out at 360 nM.

Consider `O=P(O)(O)/C=C/CC[S+]([O-])c1ccccc1O` (centres undefined), for which the result with Arabidopsis thaliana [1] and in the assay with Arabidopsis thaliana [2] was Active. Further, the outcome in the assay on Arabidopsis thaliana [3] was inactive. Moreover, the Activity entry with Amaranthus viridis and in the assay with Chenopodium album was “<=80%” throughout. In addition, the IC50 in assay [4] came to 440 nM.

`O=P(O)(O)CCCCc1c[nH]c2ccccc12`: the IC50 in assay [4] was determined as 20000 nM.
